From patent US20050014754A1, “Fused pyrrole compounds” (priority 2003, published 2005)

Columns and labels:
TNFα = test: In-vitro assay measuring TNFα inhibition (LPS-stimulated human PBMC, ELISA); assay type: cell-based; conditions: human PBMC stimulated with LPS 1 μg/mL, supernatant after 18 h, read-out: IC50, inhibition of TNFα production
Protocol: Reagents. Lipopolysaccharide (LPS, Serratia marscencens) was obtained from Sigma (St. Louis, Mo.). RPMI-1640 medium and fetal calf serum (FCS) were purchased from the ATCC (Manassas, Va.).
Assay. Human peripheral blood cells (PBMC) were isolated by centrifugation using Ficoll-Paque (Pharmacia Biotech, Uppsala, Sweden) and suspended in RPMI-1640 medium supplemented with 10% FCS, 100 U/mL penicillin, and 100 μg/mL streptomycin. The cells were then plated in the wells of a 96-well plate at a concentration of 5×10^5 cells/well, and stimulated by adding LPS (1 μg/mL). Each test compound was dissolved in DMSO and added to the wells. The final DMSO concentration was adjusted to 0.25% in all cultures, including the compound-free control, and the concentrations of each test compound ranged from 0 to 10 μM. Cell-free supernatants were taken 18 h later for measurement of cytokines. Cell viability was assessed using the bioreduction of MTS [3-(4,5-dimethylthiazol-2-yl)-5-(3-carboxymethoxyphenyl)-2-(4-sulophenyl)-2H-tetrazolium] after 18 h and 48 h. Cell survival was estimated by determining the ratio of the absorbance in each of the compound-treated cultures to that in the compound-free control.
The supernatant was assayed for the amount of TNFα by using an ELISA assay with anti-human TNFa antibodies (Cell Sciences, Norwood, Mass.). The assay was carried out following the manufacturer's instructions.

[1] = system: MDA435 (human breast cancer); test: In-vitro assay measuring anti-cancer activity (MTS assay); assay type: cell-based; conditions: MDA435 cells, 72 hours incubation, read-out: IC50, concentration required to inhibit 50% tumor cell growth
Protocol: In vitro anti-cancer activity was determined in human cancer cell line MDA435 (human breast cancer), obtained from ATCC (American Type of Culture Collection).
The cell line was maintained in RPMI1640(GIBCO) supplemented with 10% FCS, 100 units/ml penicillin, 100 ug/ml streptomycin, and 2 mM L-glutamine. The cells were split every third day and diluted to a concentration of 2×10^5 cells/ml one day before experiment. The experiment was performed on exponentially growing cell culture. Cell densities were 2.5×10^4 cells/ml in this experiment.
A stock solution of Compound (I-4) was prepared by dissolving the compound at a concentration of 1 mM in 100% DMSO. Final concentrations were obtained by diluting the stock solution directly into the tissue culture medium. Cells were incubated with varying concentrations of the compound for 72 hours and the IC50 was determined by MTS (i.e. 3-(4.5.-dimethylthiazol-2-yl)-2.5-diphenyl tetrazolium bromide) assay. In this experiment, IC50 stands for the concentration of compound required to inhibit 50% tumor cell growth. Compound (I-4) provided an IC50 value of about 1 μM.

PDE4 = test: In-vitro assay measuring PDE4 inhibition (PDE4 from U937 human monocytic cells, [3H]-cAMP SPA); assay type: biochemical; conditions: 23 nM [3H]-cAMP, 37° C., 30 min
Protocol: PDE4 was prepared from U937 human monocytic cells according to the method of Tenor et al. (Clin Exp Allegy (1995) 25:625-633). Briefly, U937 cells were homogenized in a mixture of pH 7.4 containing 10 mM Hepes, 1 mM b-mercaptoethanol, 1 mM MgCl2, 1 mM EGTA, 137 mM NaCl, 2.7 mM KCl, 1.5 mM KH2PO4, 8.1 mM Na2HPO4, 5 μM pepstain A, 10 μM leupeptin, 50 μM PMSF, 10 μM soybean trypsin inhibitor, and 2 mM benzamindine. The homogenate was centrifuged at 200,000×g for 30 min. PDE4 activity in the supernatant was assayed in a 200 μl reaction containing 40 mM Tris-HCl, pH 7.5, 23 nM [^3H]-adenosine 3′,5′ cyclic monophosphate (cAMP), 8.3 mM MgCl2, 1.7 mM EGTA, 0.25% DMSO, and a testing compound. The assay mixture was incubated at 37° C. for 30 min and the reaction was terminated by the addition of 100 μl of yttrium silicate SPA beads (Amersham Pharmacia Biotech, Piscataway, N.J.) suspended in 18 mM ZnSO4. The assay mixture was rotated for 3 min to ensure the binding of [^3H]-5′adenosine monophosphate to the beads. Finally, the beads was spun down, washed twice with 6 mM ZnSO4, resuspended in 100 μl of 0.1 N NaOH, and then counted for radioactivity in a liquid scintillation counter.

Row | IC50 (TNFα) [nM] | IC50 [1] [nM] | IC50 (PDE4) [nM] | SMILES
1 | ~1000 |  |  | Cc1cc(NC(=O)C(=O)c2cc(Cc3ccc(C#N)cc3)n3ccsc23)sn1 [Compound I-10, 2-[5-(4-Cyano-benzyl)-pyrrolo[2,1-b]thiazol-7-yl]-N-(3-methyl-isothiazol-5-yl)-2-oxo-acetamide]
2 | ~50 | ~1000 | ~5 | O=C(Nc1c(Cl)c[n+]([O-])cc1Cl)C(=O)c1cc(Cc2ccc(F)cc2)n2ncccc12 [Compound I-4, N-(3,5-Dichloro-1-oxy-pyridin-4-yl)-2-[7-(4-fluoro-benzyl)-pyrrolo[1,2-b]pyridazin-5-yl]-2-oxo-acetamide]
